8 molecules from patent US5395610A, “Agents for potentiating the effects of antitumor agents and combating multiple drug resistance” (Burroughs-Wellcome Co., priority 1989, dated 1995) can be followed below.

A short description of data set [1]: In vitro cytotoxicity / potentiation of Actinomycin D in human KB epidermoid carcinoma cells, drug resistant KB V-1 (MTT). The data set is classed as cell-based. As to conditions: human, kb v-1 cells, fraction of untreated cultures, read-out: Cytotoxicity, normalized absorbance, Drug Resistant KB V-1, 0 (no Act D); for viability at 96 h, 1 µM: 1 μM potentiating agent alone; for viability at 96 h, 10 µM: 10 μM potentiating agent alone.

The subject of data set [2] is human KB epidermoid carcinoma cells, drug resistant KB V-1. The data set is described as above. It counts as cell-based. As to conditions: 96 h, fraction of Act D alone.
Data set [3] in a line: in vitro. As to conditions: hamster, cho auxb1 cells. The data set is classed as cell-based, Chinese hamster.
The nature of data set [4]: In vitro cytotoxicity / potentiation of Actinomycin D in human KB epidermoid carcinoma cells, wildtype KB 3-1 (MTT). The note with it: human, kb 3-1 cells, fraction of untreated cultures, read-out: Cytotoxicity, normalized absorbance, Wildtype KB 3-1, 0 (no Act D); for viability at 96 h, 1 µM: 1 μM potentiating agent alone; for viability at 96 h, 10 µM: 10 μM potentiating agent alone. It counts as cell-based.

For data set [5], the system named is human KB epidermoid carcinoma cells, wildtype KB 3-1. The data set is described as above. The data set is classed as cell-based. As to conditions: 96 h, fraction of Act D alone.
Data set [6] relates to Chinese hamster ovary (CHO) cells, drug resistant C5S32. The experiment in a line: In vitro cytotoxicity / potentiation of Actinomycin D in Chinese hamster ovary cells, drug resistant C5S32 (MTT). It counts as cell-based. As to conditions: 96 h, fraction of Act D alone (1.00).
Assay in data set [7]: as above
The data set is classed as cell-based. As to conditions: hamster, cho c5s32 cells, fraction of untreated cultures (1.00), read-out: Cytotoxicity, normalized absorbance, Drug Resistant C5S32, 0 (no Act D); for viability at 96 h, 1 µM: 1 μM potentiating agent alone; for viability at 96 h, 10 µM: 10 μM potentiating agent alone.

Where [8] appears, read: 1 μM potentiating agent + Act D 20 nM.
Setting [9] is: 10 μM potentiating agent + Act D 20 nM.
[10] abbreviates: 1 μM potentiating agent + Act D 0.1 nM.
[11] abbreviates: 10 μM potentiating agent + Act D 0.1 nM.
The mark [12] stands for this setting: 1 μM potentiating agent + Act D 0.5 μM.
The mark [13] stands for this setting: 10 μM potentiating agent + Act D 0.5 μM.

Regarding `Brc1ccc2c(c1)/C(=C\CN1CCCC1)c1ccccc1CO2` [(F), (Z)-1-[2-(2-Bromo-6,11-dihydrodibenz [b,e]-oxepin-11-ylidene)ethyl]pyrrolidine], the viability at 96 h, 1 µM in data set [1] stood at 80%; in data set [3] it was 100%; in data set [4], 84%; in data set [7], 82%. The viability at 96 h, 10 µM in data set [1] was 59%; in data set [3], 88%; in data set [4], 78%; in data set [7] it was 28%. Besides, the “Synergism with Actinomycin D, normalized absorbance, Drug Resistant KB V-1, +ACT D” value came to 0.77 in data set [2] (setting [8]) and 0.12 in data set [2] (setting [9]). Besides, the entries for the “Synergism with Actinomycin D, normalized absorbance, Wildtype KB 3-1, +ACT D” value in data set [5] (setting [10]) and in data set [5] (setting [11]) were 0.86 and 0.68, respectively. Further, the “Synergism with Actinomycin D, normalized absorbance, Drug Resistant C5S32, +ACT D” value in data set [6] (setting [12]) was 0.68; in data set [6] (setting [13]) it was 0.19.

As to `CN(C)CC/C=C1/c2ccccc2COc2cc(Br)ccc21` [(E)], the viability at 96 h, 1 µM in data set [1] was found to be 88%; in data set [3], 100%; in data set [4] it was 89%; in data set [7], 85%. Further, the viability at 96 h, 10 µM in data set [1] is 45%; in data set [3], 100%; in data set [4] it was 89%; in data set [7], 48%. Moreover, the “Synergism with Actinomycin D, normalized absorbance, Drug Resistant KB V-1, +ACT D” value was 0.74 in data set [2] (setting [8]) and 0.01 in data set [2] (setting [9]). For the same molecule, the “Synergism with Actinomycin D, normalized absorbance, Wildtype KB 3-1, +ACT D” value is 0.85 in data set [5] (setting [10]) and 0.77 in data set [5] (setting [11]). Moreover, the “Synergism with Actinomycin D, normalized absorbance, Drug Resistant C5S32, +ACT D” value is reported as 0.66 in data set [6] (setting [12]) and 0.35 in data set [6] (setting [13]).

For the molecule `CN(C)CC/C=C1\c2ccccc2COc2ccc(F)cc21` [(P), (E)-3-(2-fluoro-6,11-dihydrodibenz [b,e]oxepin-11-ylidine)-N,N-dimethylpropylamine], the viability at 96 h, 1 µM in data set [1] is 73%; in data set [3] it was 100%; in data set [4], 65%; in data set [7], 61%. Besides, the viability at 96 h, 10 µM in data set [1] came to 52%; in data set [3] it was 100%; in data set [4], 65%; in data set [7] it was 31%. The “Synergism with Actinomycin D, normalized absorbance, Drug Resistant KB V-1, +ACT D” value was determined as 0.72 in data set [2] (setting [8]) and 0.58 in data set [2] (setting [9]). The figures for the “Synergism with Actinomycin D, normalized absorbance, Wildtype KB 3-1, +ACT D” value in data set [5] (setting [10]) and in data set [5] (setting [11]) were 0.72 and 0.71, respectively. The “Synergism with Actinomycin D, normalized absorbance, Drug Resistant C5S32, +ACT D” value in data set [6] (setting [12]) is on record as 0.70; in data set [6] (setting [13]), 0.38.

Turning to `CN(C)CC/C=C1/c2ccccc2COc2c(Br)cccc21` [(D), (Z)-3-(4-Bromo-6,11-dihydrodibenz [b,e]oxepin-11-ylidene)-N,N-dimethylpropylamine], the viability at 96 h, 1 µM in data set [1] was 75%; in data set [3] it was 100%; in data set [4], 88%; in data set [7], 89%. The viability at 96 h, 10 µM amounted to 36% in data set [1], 100% in data set [3], 51% in data set [4] and 34% in data set [7]. The “Synergism with Actinomycin D, normalized absorbance, Drug Resistant KB V-1, +ACT D” value in data set [2] (setting [8]) stood at 0.78; in data set [2] (setting [9]) it was 0.01. Moreover, the results for the “Synergism with Actinomycin D, normalized absorbance, Wildtype KB 3-1, +ACT D” value in data set [5] (setting [10]) and in data set [5] (setting [11]) were 0.86 and 0.65, respectively. In addition, the entries for the “Synergism with Actinomycin D, normalized absorbance, Drug Resistant C5S32, +ACT D” value in data set [6] (setting [12]) and in data set [6] (setting [13]) were 0.71 and 0.31, respectively.

Consider `Brc1ccc2c(c1)/C(=C/CCN1CCCC1)c1ccccc1CO2` [(K), (E)-1-[3-(2-Bromo-6,11-dihydrodibenz [b,e]-oxepin-11-ylidene)propyl]pyrrolidine], for which the viability at 96 h, 1 µM worked out at 86% in data set [1], 83% in data set [3], 85% in data set [4] and 100% in data set [7]. Further, the viability at 96 h, 10 µM amounted to 8% in data set [1], 87% in data set [3], 100% in data set [4] and 100% in data set [7]. The figures for the “Synergism with Actinomycin D, normalized absorbance, Drug Resistant KB V-1, +ACT D” value in data set [2] (setting [8]) and in data set [2] (setting [9]) were 0.88 and 0.13, respectively. In addition, the results for the “Synergism with Actinomycin D, normalized absorbance, Wildtype KB 3-1, +ACT D” value in data set [5] (setting [10]) and in data set [5] (setting [11]) were 0.77 and 0.03, respectively. The “Synergism with Actinomycin D, normalized absorbance, Drug Resistant C5S32, +ACT D” value is 0.79 in data set [6] (setting [12]) and 0.28 in data set [6] (setting [13]).

As to `CN(C)CC/C=C1/c2ccccc2COc2ccc(Br)cc21.Cl.Cl.Cl` [(A), (Z)-3-(2-Bromo-6,11-dihydrodibenz [b,e]oxepin-11-ylidene)-N,N-dimethylpropylamine trihydrochloride], the viability at 96 h, 1 µM in data set [1] was found to be 100%; in data set [3] it was 100%; in data set [4], 99%; in data set [7], 85%. Also, the viability at 96 h, 10 µM in data set [1] was 75%; in data set [3] it was 100%; in data set [4] it was 98%; in data set [7], 42%. In addition, the “Synergism with Actinomycin D, normalized absorbance, Drug Resistant KB V-1, +ACT D” value in data set [2] (setting [8]) turned out to be 0.99; in data set [2] (setting [9]), 0.21. In addition, the “Synergism with Actinomycin D, normalized absorbance, Wildtype KB 3-1, +ACT D” value in data set [5] (setting [10]) is on record as 0.88; in data set [5] (setting [11]), 1.00. For the same molecule, the results for the “Synergism with Actinomycin D, normalized absorbance, Drug Resistant C5S32, +ACT D” value in data set [6] (setting [12]) and in data set [6] (setting [13]) were 0.71 and 0.22, respectively.

On to `Brc1ccc2c(c1)/C(=C\CCN1CCCC1)c1ccccc1CO2` [(G), (Z)-1-[3-(2-Bromo-6,11-dihydrodibenz [b,e]-oxepin-11-ylidene)propyl]pyrrolidine], for which the viability at 96 h, 1 µM in data set [1] was determined as 86%; in data set [3], 100%; in data set [4], 87%; in data set [7], 54%. In addition, the viability at 96 h, 10 µM in data set [1] was determined as 70%; in data set [3] it was 100%; in data set [4], 74%; in data set [7], 15%. The “Synergism with Actinomycin D, normalized absorbance, Drug Resistant KB V-1, +ACT D” value in data set [2] (setting [8]) is 0.91; in data set [2] (setting [9]), 0.35. In addition, the “Synergism with Actinomycin D, normalized absorbance, Wildtype KB 3-1, +ACT D” value was 0.80 in data set [5] (setting [10]) and 0.87 in data set [5] (setting [11]). For the same molecule, the “Synergism with Actinomycin D, normalized absorbance, Drug Resistant C5S32, +ACT D” value is listed as 0.47 in data set [6] (setting [12]) and 0.10 in data set [6] (setting [13]).

Turning to `Fc1ccc2c(c1)/C(=C/CCN1CCCC1)c1ccccc1CO2` [(S), (E)-1-[3-(2-fluoro-6,11-dihydrodibenz [b,e]-oxepin-11-ylidene)propyl]pyrrolidine], the viability at 96 h, 1 µM in data set [1] was 89%; in data set [3], 91%; in data set [4], 77%; in data set [7], 100%. In addition, the viability at 96 h, 10 µM in data set [1] worked out at 72%; in data set [3], 88%; in data set [4], 67%; in data set [7], 100%. Moreover, the “Synergism with Actinomycin D, normalized absorbance, Drug Resistant KB V-1, +ACT D” value in data set [2] (setting [8]) stood at 0.84; in data set [2] (setting [9]), 0.48. For the same molecule, the “Synergism with Actinomycin D, normalized absorbance, Wildtype KB 3-1, +ACT D” value in data set [5] (setting [10]) came to 0.79; in data set [5] (setting [11]) it was 0.72. In addition, the results for the “Synergism with Actinomycin D, normalized absorbance, Drug Resistant C5S32, +ACT D” value in data set [6] (setting [12]) and in data set [6] (setting [13]) were 0.94 and 0.58, respectively.
